In US20260072027A1, “Peptides And Method” (Queen Mary University of London, priority 2022, published 2026):
“And” between values parts separate entries of the source, which are not always exact repeats. Equal entries are not always repeated. “Also recorded” adds a separate entry of the source. Where no end group is shown, it is not given here.

How the values were obtained:
CD4+ T-cells (PBMCs) = test: In vitro peptide stimulation and T-cell proliferation assay, CD4+; assay type: cell-based, human; details: for CD4+ mean SI (stimulation index): Study cohort 2
In short: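 CellTrace Violet-labelled fresh PBMCs from type 1 diabetic and healthy donors cultured 7 days in 5% autologous plasma with or without 20 μg/ml insulin peptides. Proliferation measured by flow cytometry as dye dilution within the CD4+ or CD8+ subset. Stimulation index = % proliferation stimulated/% unstimulated.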

[1] = tested on: autoantibodies to oxPTM-INS; test: Competitive displacement ELISA, plate coated with oxidised insulin; assay type: binding, human; details: for inhibition of type 1 diabetes serum binding to oxPTM-INS (in words): sera pre-incubated with peptide competitor
Description: A competitive displacement assay was performed to map the exact epitope, namely the exact amino acid sequence binding specificities and to test the binding to native peptides versus oxidised insulin peptides. The binding to the peptide was done by direct ELISA on the native or modified peptides or by competition ELISA. Initially native synthetic peptide was oxidised by exposing to 0.05 mM CuCl2; 90 mM H2O2; 10 mM NaOCl. Native and modified peptides were fractionated by AKTA to evaluated changes in molecular profile. AKTA fractions were then tested by ELISA for reactivity (FIGS. 2 and 3). We next perform competition ELISA with the native peptides and peptides exposed to 0.05 mM CuCl2; 90 mM H2O2; 10 mM NaOCl. Serum samples were pre-incubated with either native insulin peptides or oxidised insulin peptides. Finally, based on the amino acid sequence of the identified peptides we predicted the amino acids that would be oxidised by ^●OH and HOCl and designed synthetic peptides that contain the oxidised amino acids in the synthesis. Synthetic peptides were produced by standard commercially available methods, specifically by Peptide Protein Research Ltd. Briefly, peptide synthesis was performed by automated solid phase peptide synthesis (SPPS), which was followed by purification. Each individual amino acid was added to the growing chain according to the sequence. Where specified, dihydroxyphenylalanine was added to replace Tyr or cysteate were added to replace Cys. Similarly, these peptides were tested by competition ELISA. The table below describe the different competition ELISA performed:
Serum samples from children with type 1 diabetes were pre-incubated with the synthetic peptides before they were added to the native insulin or oxidised that were previously coated on the ELISA plate. If the antibodies in the serum sample bind to the peptide they will no longer bind to the insulin or oxidised insulin on the plate-competition ELISA. 1:200 dilutions of serum samples from T1D serum samples were pre-incubated for 2 hr at room temperature with the various peptides as shown in the table above. After incubation, serum/peptide mix was added to the ELISA plate previously coated overnight with either native insulin or oxidised insulin for an additional 2 hr incubation. Plates were then washed in a plate washer three times with PBS 0.05% tween. After washing, 100 ul of anti-human IgG diluted 1:1000 in 1% milk-PBS 0.05% tween were added for additional 1 hour and 30 min incubation. After washing, ELISA was developed by adding 100 ul of TMB (10 mg/ml in DMSO) in 10 ml of 0.1 M sodium acetate plus 2 ul of H2O2. Reaction was stopped by adding 0.5 M H2SO4 (usually 20 min for insulin ELISA).
To assess the binding specificity of serum samples to identified peptides, a competitive ELISA was performed. The ELISA was carried out following the method described above, except that the serum samples were pre-incubated for 2 h with and without 10 μg/ml peptides as competitors, before adding the serum samples to the insulin coated ELISA plate.

Row | Substance | CD4+ T-cell response, subjects with SI > 1 (%) (CD4+ T-cells (PBMCs); Controls (N = 11)) | CD4+ T-cell response, subjects with SI > 3 (%) (CD4+ T-cells (PBMCs); Controls (N = 11)) | CD4+ T-cell response, subjects with SI > 5 (%) (CD4+ T-cells (PBMCs); Controls (N = 11)) | CD4+ T-cell response, subjects with SI > 10 (%) (CD4+ T-cells (PBMCs); Controls (N = 11)) | CD4+ T-cell response, subjects with SI > 3 (%) (CD4+ T-cells (PBMCs); Controls (N = 11), listed as Nt-INSP-4) | CD4+ T-cell response, subjects with SI > 1 (%) (CD4+ T-cells (PBMCs); Type 1 diabetes (N = 18)) | CD4+ T-cell response, subjects with SI > 3 (%) (CD4+ T-cells (PBMCs); Type 1 diabetes (N = 18)) | CD4+ T-cell response, subjects with SI > 5 (%) (CD4+ T-cells (PBMCs); Type 1 diabetes (N = 18)) | CD4+ T-cell response, subjects with SI > 10 (%) (CD4+ T-cells (PBMCs); Type 1 diabetes (N = 18)) | CD4+ T-cell response, subjects with SI > 3 (%) (CD4+ T-cells (PBMCs); Type 1 diabetes (N = 18), listed as Nt-INSP-4) | CD4+ mean SI (stimulation index) (CD4+ T-cells (PBMCs); controls) | CD4+ mean SI (stimulation index) (CD4+ T-cells (PBMCs); type 1 diabetes) | inhibition of type 1 diabetes serum binding to oxPTM-INS (in words) ([1]; listed as Nt-INSP-4) | inhibition of type 1 diabetes serum binding to oxPTM-INS (in words) [1] | reduced binding to oxidised whole insulin ([1]; type 1 diabetes sera pre-incubated with peptide, listed as Oxidised peptide 3)
1 | LVEALYLVCGERGFFYTPKT [insulin B:11-30 native peptide] | (81.8%) | (45.5%) | (27.3%) | (9.1%) | 45.5 | (100%) | (66.7%) | (5.3%) | (50.0%) | 66.7 | 6.89±3.4 | 119.8±51.69 | comparable inhibition as oxPTM-INSP-4; also recorded: comparable inhibition compared to oxPTM-INSP-4; also recorded: blocked type 1 diabetes serum binding to oxPTM-INS like oxPTM-INSP-4 | – | –
2 | oxPTM-INSP-3: oxidised forms of insulin peptide 3 (A:12-21), in house oxidised or in silico derivatives (SLYQLENYCN; not fully specified (N-terminus); also: oxidised forms, in house oxidised or in silico derivatives, modified residues not defined) | – | 9.1% | – | – | – | – | 22.2% | – | – | – | – | – | – | strongly inhibited binding to oxPTM-INS; also recorded: able to inhibit the binding | 35-80% and 40-80%
